Experimental data as given in patent US9301923B2, “Lipids, lipid compositions, and methods of using them” (NOVARTIS AG, priority 2009, dated 2016).
Like-named read-outs stand apart in the source and are kept apart here.

How the values were obtained:
[1] = tested on: Factor VII; experiment: Factor VII activity assay, in vivo liver delivery of FVII siRNA LNP; design: species or system mouse; details: ~48 h
Procedure: Female CD-1 mice are received from Charles River Labs and maintained on standard lab chow and water ad libitum. The animals weigh approximately 25 grams at time of dosing. Formulated siRNA is administered as a single dose at various dose levels intravenously via the lateral tail vein calculated on a (mg siRNAs/kg) basis according to individual animal weights (10 ml/kg injection volume).
Formulated siRNAs are made up of double stranded siRNA sequences specific to a target mRNA sequence, and are in the form of lipid nucleotid particles (LNPs) containing cationic lipids, stealth lipids and neutral lipids, as provided in the Examples below. The siRNA construct for use in targeting the liver is specific to Factor VII. […] FVII siRNA duplex sequence
Formulated Factor VII siRNA is administered as a single dose at various dose levels intravenously via the lateral tail vein calculated on a mg siRNAs/kg basis according to individual animal weights (10 ml/kg injection volume). Approximately 48 h after injection, the mice are euthanized by CO2 inhalation followed by exsanguinations through the vena cava. […] In some cases, small pieces (˜50 mg) of liver are collected and snap frozen in liquid nitrogen for follow up mRNA quantitation.
An assay standard curve is prepared using pooled plasma aliquots from the vehicle control animals.

[2] = pKa of the lipid by TNS fluorescence; type: physicochemical
Procedure: Unless explicitly indicated otherwise, all pKas referred to herein are measured in water at standard temperature and pressure. Also, unless otherwise indicated, all references to pKa are references to pKa measured using the following technique.
2 mM solution of lipid in ethanol are prepared by weighing the lipid and then dissolving in ethanol.
This is done with all eight buffers.
Priority: Column priority • Carriage Speed: Normal • Auto read: Off
The normalized fluorescence intensity vs. pH chart is then plotted in the Microsoft Excel software. The eight points are connected with a smooth line.
The pKa determined using this method is precise to about 0.2 pKa units.

[3] = Particle size and PDI by dynamic light scattering (Malvern Zetasizer); type: physicochemical
Procedure: Unless indicated otherwise, all sizes referred to herein are the average sizes (diameters) of the fully formed nanoparticle, as measured by dynamic light scattering on a Malvern Zetasizer. The nanoparticle sample is diluted in phosphate buffered saline (PBS) so that the count rate is approximately 200-400 kcts. The data is presented as a weighted average of the intensity measure.
The acronym PDI stands for polydispersity index. Unless indicated otherwise, all PDIs referred to herein are the PDI of the fully formed nanoparticle, as measured by dynamic light scattering on a Malvern Zetasizer. The nanoparticle sample is diluted in phosphate buffered saline (PBS) so that the count rate is approximately 200-400 kcts.

[4] = dose 3 mg/kg siRNA i.v., lipid/DSPC/CHOL/AVANTI 880150P 50/28/18/4, N/P 3.43
[5] = dose 3 mg/kg siRNA i.v., lipid/no neutral lipid/CHOL/AVANTI 880150P 50/0/46/4, N/P 3.43
[6] = lipid/DSPC/CHOL/AVANTI 880150P 50/28/18/4, N/P 3.43
[7] = lipid/no neutral lipid/CHOL/AVANTI 880150P 50/0/46/4, N/P 3.43
[8] = lipid/DSPC/CHOL/AVANTI 880150P 30/30/36/4, N/P 2.3
[9] = lipid/DSPC/CHOL/AVANTI 880150P 25/28/18/4, N/P 1.9

| SMILES | FVII inhib % [1, 4] | FVII inhib % [1, 5] | pKa ([2]; pKa) | Final size (nm) [3, 6] | PDI [3, 6] | Final size (nm) [3, 7] | PDI [3, 7] | further results |
| --- | --- | --- | --- | --- | --- | --- | --- | --- |
| CCCCC/C=C\C/C=C\CCCCCCCCOCC(CN1CCc2ccccc2C1)OCCOCCO[C@H]1CC[C@@]2(C)C(=CC[C@H]3[C@@H]4CC[C@H]([C@H](C)CCCC(C)C)[C@@]4(C)CC[C@@H]32)C1 (some centres unmarked) [E0001] | 27.6% | 20.1% | 4.84 | 71 nm | 0.101 | 77 nm | 0.16 |  |
| CCCCC/C=C\C/C=C\CCCCCCCCOCC(CN1CCN(C(=O)OC(C)(C)C)CC1)OCCOCCO[C@H]1CC[C@@]2(C)C(=CC[C@H]3[C@@H]4CC[C@H]([C@H](C)CCCC(C)C)[C@@]4(C)CC[C@@H]32)C1 (some centres unmarked) [E0002] | 10.4% |  |  | 109 nm | 0.221 |  |  | FVII inhib % ([1]; dose 1 mg/kg siRNA i.v., lipid/DSPC/CHOL/AVANTI 880150P 50/28/18/4, N/P 3.43): −0.3% |
| CCCCC/C=C\C/C=C\CCCCCCCCOCC(CN1CCC(N2CCCCC2)CC1)OCCOCCO[C@H]1CC[C@@]2(C)C(=CCC3C2CC[C@@]2(C)C3CC[C@@H]2[C@H](C)CCCC(C)C)C1 (some centres unmarked) [E0004] | 23.4% | 41% | 7.48 | 142 nm | 0.113 | 186 nm | 0.201 |  |
| CCCCC/C=C\C/C=C\CCCCCCCCOCC(CN1CCC(OC)CC1)OCCOCCO[C@H]1CC[C@@]2(C)C(=CCC3C2CC[C@@]2(C)C3CC[C@@H]2[C@H](C)CCCC(C)C)C1 (some centres unmarked) [E0005] | 12.2% |  |  | 168 nm | 0.069 | 146 nm | 0.07 |  |
| CCCCC/C=C\C/C=C\CCCCCCCCOCC(CN1C[C@@H](C)O[C@@H](C)C1)OCCOCCO[C@H]1CC[C@@]2(C)C(=CC[C@H]3[C@@H]4CC[C@H]([C@H](C)CCCC(C)C)[C@@]4(C)CC[C@@H]32)C1 (some centres unmarked) [E0006] | 15.7% | 21.2% | 4.88 | 146 nm | 0.04 | 95 nm | 0.142 |  |
| CCCCC/C=C\C/C=C\CCCCCCCCOCC(CN1CCC2(CC1)OCCCO2)OCCOCCO[C@H]1CC[C@@]2(C)C(=CCC3C2CC[C@@]2(C)C3CC[C@@H]2[C@H](C)CCCC(C)C)C1 (some centres unmarked) [E0007] | 72.2% | 76.8% | 5.84 | 92 nm | 0.178 | 138 nm | 0.148 |  |
| CCCCC/C=C\C/C=C\CCCCCCCCOCC(CN1CC[C@H]2OC(C)(C)O[C@H]2C1)OCCOCCO[C@H]1CC[C@@]2(C)C(=CCC3C2CC[C@@]2(C)C3CC[C@@H]2[C@H](C)CCCC(C)C)C1 (some centres unmarked) [E0009] | 38.4% | 6.9% | 4.89 | 83 nm | 0.2 | 82 nm | 0.16 |  |
| CCCCC/C=C\C/C=C\CCCCCCCCOCC(CN1CCCC2CCCCC21)OCCOCCO[C@H]1CC[C@@]2(C)C(=CCC3C2CC[C@@]2(C)C3CC[C@@H]2[C@H](C)CCCC(C)C)C1 (some centres unmarked) [E0010] | 46.8% | 65.1% | 5.85 | 90 nm | 0.184 | 80 nm | 0.201 |  |
| CCCCC/C=C\C/C=C\CCCCCCCCOCC(CN1CCNCC1)OCCOCCO[C@H]1CC[C@@]2(C)C(=CC[C@H]3[C@@H]4CC[C@H]([C@H](C)CCCC(C)C)[C@@]4(C)CC[C@@H]32)C1 (some centres unmarked) [E0012] |  |  |  |  |  |  |  | FVII inhib % ([1]; dose 3 mg/kg siRNA i.v., lipid/DSPC/CHOL/AVANTI 880150P 30/30/36/4, N/P 2.3): 9.3%; Final size (nm) [3, 8]: 220 nm; PDI [3, 8]: 0.105 |
| CCCCC/C=C\C/C=C\CCCCCCCCOCC(CN1CC2CCCC2C1)OCCOCCO[C@H]1CC[C@@]2(C)C(=CC[C@H]3[C@@H]4CC[C@H]([C@H](C)CCCC(C)C)[C@@]4(C)CC[C@@H]32)C1 (some centres unmarked) [E0022] | 49.4% | 87.8% |  | 93 nm | 0.143 | 84 nm | 0.192 |  |
| CCCCC/C=C\C/C=C\CCCCCCCCOCC(CN1CCC(CCOC)CC1)OCCOCCO[C@H]1CC[C@@]2(C)C(=CCC3C2CC[C@@]2(C)C3CC[C@@H]2[C@H](C)CCCC(C)C)C1 (some centres unmarked) [E0033] |  | 15.3% |  |  |  | 105 nm | 0.05 | FVII inhib % ([1]; dose 3 mg/kg siRNA i.v., lipid/DSPC/CHOL/AVANTI 880150P 25/28/18/4, N/P 1.9): −36.4%; Final size (nm) [3, 9]: 161 nm; PDI [3, 9]: 0.16 |
| CCCCC/C=C\C/C=C\CCCCCCCCOC[C@@H](CN1CCCCC1)OCCOCCO[C@H]1CC[C@@]2(C)C(=CCC3C2CC[C@@]2(C)C3CC[C@@H]2[C@H](C)CCCC(C)C)C1 (some centres unmarked) [E0034] | 81.3% | 88.1% |  | 99 nm | 0.16 | 99 nm | 0.16 |  |
| CCCCC/C=C\C/C=C\CCCCCCCCOCC(CN1CCC[C@@H]1COC)OCCOCCO[C@H]1CC[C@@]2(C)C(=CC[C@H]3C4CC[C@H]([C@H](C)CCCC(C)C)[C@@]4(C)CC[C@@H]32)C1 (some centres unmarked) [E0037] | 69.3% | 66.2% |  | 96 nm | 0.24 | 117 nm | 0.1 |  |
| CCCCC/C=C\C/C=C\CCCCCCCCOCC(CN1CCC(N2CCOCC2)C1)OCCOCCO[C@H]1CC[C@@]2(C)C(=CC[C@H]3[C@@H]4CC[C@H]([C@H](C)CCCC(C)C)[C@@]4(C)CC[C@@H]32)C1 (some centres unmarked) [E0038] | −2.4% | −6.2% |  | 116 nm | 0.25 | 115 nm | 0.08 |  |
| CCCCC/C=C\C/C=C\CCCCCCCCOCC(CN1CCCCC1)OCCOCCOC(=O)O[C@H]1CC[C@@]2(C)C(C=CC3C2CC[C@@]2(C)C3CC[C@@H]2[C@H](C)CCCC(C)C)C1 (some centres unmarked) [E0056] |  |  | 6.33 |  |  |  |  | pKa [2]: 5.84 |
| CCCCC/C=C\C/C=C\CCCCCCCCOCC(CN1CCCCC1)OCCNC(=O)O[C@H]1CC[C@@]2(C)C(=CC[C@H]3[C@@H]4CC[C@H]([C@H](C)CCCC(C)C)[C@@]4(C)CC[C@@H]32)C1 (some centres unmarked) [E0102] |  |  | 6.31 |  |  |  |  | Final size (nm) ([3]; LNP formulation with PLK1 siRNA, helper, neutral and stealth lipid, molar ratio and N/P as in the table): 94.69 nm |
| CCCCCCCC/C=C\CCCCCCCCOCC(CN1CCOCC1)OCCOCCOC(=O)CO[C@H]1CC[C@@]2(C)C(=CC[C@H]3[C@@H]4CC[C@H]([C@H](C)CCCC(C)C)[C@@]4(C)CC[C@@H]32)C1 (some centres unmarked) [E0125] |  |  | 5.53 |  |  |  |  | Final size (nm) ([3]; LNP formulation with PLK1 siRNA, helper, neutral and stealth lipid, molar ratio and N/P as in the table, stealth lipid S004, molar ratio 50/38/10/2, N/P 4): 101.5 nm; Final size (nm) ([3]; LNP formulation with PLK1 siRNA, helper, neutral and stealth lipid, molar ratio and N/P as in the table, stealth lipid S004, molar ratio 50/43/5/2, N/P 4): 92.84 nm; Final size (nm) ([3]; LNP formulation with PLK1 siRNA, helper, neutral and stealth lipid, molar ratio and N/P as in the table, stealth lipid S004, molar ratio 50/48/2, N/P 4): 94.13 nm |
| CCCCC/C=C\C/C=C\CCCCCCCCOCC(CN1CCC(F)(F)CC1)OCCOCCO[C@H]1CC[C@@]2(C)C(=CCC3C2CC[C@@]2(C)C3CC[C@@H]2[C@H](C)CCCC(C)C)C1 (some centres unmarked) [E0170] | 9.3% | 14.3% |  | 133 nm | 0.095 | 170 nm | 0.05 |  |
